Changes are numbered by the printed parent chain.
How the values were obtained:
Assay type in all cases: biochemical, bovine
[1] = target: T1, Gal-T1(Y289M) (Bos taurus, UniProt P08037, I205M/L206V/P187L/V158I/Y289M); assay: Glycosyltransfer to trimmed trastuzumab with Gal-T1(Y289M) expressed in CHO; details: trimmed trastuzumab 10 mg/mL; UDP derivative 5 mM; enzyme 0.5 mg/mL; pH 8.0, 30° C. overnight
T1 construct: host or cells: CHO K1
T1 sequence (P08037 74-402 V158I/P187L/I205M/L206V/Y289M): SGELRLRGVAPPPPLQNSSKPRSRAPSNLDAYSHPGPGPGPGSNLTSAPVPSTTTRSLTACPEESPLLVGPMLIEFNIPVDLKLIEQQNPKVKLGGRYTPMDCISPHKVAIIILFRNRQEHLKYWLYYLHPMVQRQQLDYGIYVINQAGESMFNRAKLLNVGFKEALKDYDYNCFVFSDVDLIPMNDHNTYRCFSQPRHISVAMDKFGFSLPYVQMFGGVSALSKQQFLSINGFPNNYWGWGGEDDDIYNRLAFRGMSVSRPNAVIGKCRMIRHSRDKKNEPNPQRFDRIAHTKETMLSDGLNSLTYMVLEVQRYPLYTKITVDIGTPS
Description: (§1) A set of Gal-T 1 mutants encoding residues 74-402 of bovine Gal-T 1 were transiently expressed in CHO K1 cells by Evitria (Zurich, Switzerland) which include the Gal-T1 single mutants Y289L (represented by SEQ ID NO: 26), Y289F (represented by SEQ ID NO: 27), Y289M (represented by SEQ ID NO: 28), Y289V (represented by SEQ ID NO: 29), Y289A (represented by SEQ ID NO: 30), and Y289G (represented by SEQ ID NO: 31), and the Gal-T1 double mutants Y289L,C342T (represented by SEQ ID NO: 32), and Y289M,C342T (represented by SEQ ID NO: 33). The mutants were purified using a cation exchange column (Source 15S HR16/10 column, GE Healthcare) as described above. Purified proteins were analyzed by SDS-PAGE.
(§2) Trimmed trastuzumab (10 mg/mL, […] obtained by Endo S treatment of trastuzumab, was incubated with the 4-azido-3,5-difluorobenzoyl derivative of UDP-galactosamine (23, 5 mM) and one of the Gal-T1 single mutants Y289L, Y289M, Y289A or Y289G (expressed in CHO as described above) (0.5 mg/mL) in 10 mM MnCl2 and 25 mM Tris-HCl pH 8.0 at 30° C. overnight. Mass spectral analysis of the reduced sample indicated a partial conversion of the core GlcNac(Fuc)-substituted trastuzumab heavy chain (49504 Da) into product 30 (49818 to 49825 Da, 20 to 50% of total heavy chain depending on the Gal-T1 mutant used), resulting from transfer of 23 to core GlcNAc(Fuc)-substituted trastuzumab heavy chain. […]

[2] = target: T2, Gal-T1(Y289G) (Bos taurus, UniProt P08037, I205M/L206V/P187L/V158I/Y289G); assay: Glycosyltransfer to trimmed trastuzumab with Gal-T1(Y289G) expressed in CHO; details: trimmed trastuzumab 10 mg/mL; UDP derivative 5 mM; enzyme 0.5 mg/mL; pH 8.0, 30° C. overnight
T2 construct: host or cells: CHO K1
T2 sequence (P08037 74-402 V158I/P187L/I205M/L206V/Y289G): T1 sequence (P08037 74-402 V158I/P187L/I205M/L206V/Y289M) with M216G
Description: as §1, §2

[3] = target: T3, Gal-T1(Y289M,C342T) (Bos taurus, UniProt P08037, C342T/Y289M); assay: Glycosyltransfer to trimmed trastuzumab with Gal-T1(Y289M,C342T) expressed in CHO; details: trimmed trastuzumab 10 mg/mL; UDP derivative 5 mM; enzyme 1.0 mg/mL; pH 8.0, 30° C. overnight
T3 construct: host or cells: CHO K1
T3 sequence (P08037 74-402 V158I/P187L/I205M/L206V/Y289M/C342T): T1 sequence (P08037 74-402 V158I/P187L/I205M/L206V/Y289M) with C269T
Description: A solution of 20 μg (modified) IgG was incubated for 1 hour at 37° C. with Fabricator™ (commercially available from Genovis, Lund, Sweden) (1.25 U/μL) in phosphate-buffered saline (PBS) pH 6.6 in a total volume of 10 μL. Fabricator™-digested samples were washed trice with milliQ using an Amicon Ultra-0.5, Ultracel-10 Membrane (Millipore) resulting in a final sample volume of approximately 40 μL. The Fc/2 fragment was analyzed by electrospray ionization time-of-flight (ESI-TOF) on a JEOL AccuTOF. Deconvoluted spectra were obtained using Magtran software.
as §1, with “SDS-PAGE. […]” for “SDS-PAGE.”

[N-]=[N+]=Nc1c(F)cc(C(=O)N[C@H]2[C@@H](OP(=O)(O)OP(=O)(O)OC[C@H]3O[C@@H](n4ccc(=O)[nH]c4=O)[C@H](O)[C@@H]3O)O[C@H](CO)[C@H](O)[C@@H]2O)cc1F [Compound 23, 4-azido-3,5-difluorobenzoyl Derivative of UDP-GalNH2]
observed conversion [1]: approximately 50% | observed conversion [2]: approximately 20% | conversion of core GlcNAc(Fuc)-substituted trastuzumab into product [3]: complete conversion

Source: patent publication US20170009266A1, “PROCESS FOR THE ATTACHMENT OF A GALNAC MOIETY COMPRISING A (HETERO)ARYL GROUP TO A GLCNAC MOIETY, AND PRODUCT OBTAINED THEREBY” (SYNAFFIX B.V., priority 2014, published 2017)
